Patent US11814367B2, “Inhibitors of glycogen synthase 1 (GYS1) and methods of use thereof” (Maze Therapeutics, Inc., priority 2021, dated 2023)

Legend:
[1] = biological target: hGYS1 enzyme (recombinant hGYS1/GN1 protein) (Homo sapiens (Human), UniProt P13807); assay: GYS1 coupled enzyme assay (PK/LDH); format: biochemical; conditions: hGYS1/GN1 50 nM, UDP-Glucose 0.8 mM, G6P 1 mM; geometric mean of at least 2 runs
[2] = biological target: hGYS2 enzyme (recombinant hGYS2/GN1 protein) (Homo sapiens (Human), UniProt P54840); assay: GYS2 coupled enzyme assay (PK/LDH); format: biochemical; conditions: geometric mean of at least 2 assay runs on separate days, read-out: Avg_IC50
Description: The GYS2 coupled enzyme assay is a kinetic biochemical assay that indirectly quantifies the rate of glycogen synthesis by coupling the conversion of GYS2 substrate UDP-glucose into UDP with downstream enzymatic reactions. UDP is released from UDP-glucose as glucose monomers are linked into the growing glycogen strand by GYS2. The coupled assay then proceeds with pyruvate kinase utilizing UDP and phospho(enol)pyruvate (PEP) to form pyruvate. Lactate dehydrogenase then converts pyruvate and NADH into lactate and NAD+. Oxidation of NADH to NAD+ can be measured continuously with a plate reader by quantifying the decrease in NADH absorbance at 340 nm over time.
Compounds that inhibit the hGYS2 enzyme and, subsequently, the downstream conversion of NADH to NAD+, were tested using assay ready plates (black, clear bottom 384 well plates) in a final DMSO reaction volume of 2.5% DMSO. The Assay Buffer contained 50 mM Tris pH 7.5, 2 mM MgCl2, and 100 mM KCl. Fresh stocks of BSA at a final concentration of 0.02% and TCEP 1 mM were added before splitting buffer into hGYS2 buffer and substrate buffer. To the hGYS2 buffer, rabbit liver glycogen was added at a final concentration of 0.2% glycogen. Glucose-6-Phosphate was added at 2 mM, recombinant hGYS2/GN1 protein was added at 200 nM to the substrate buffer, phosphoenolpyruvate (PEP) was added at 2 mM, UDP-Glucose was added at 2 mM, NADH was added at 0.6 mM, and Pyruvate Kinase/Lactate Dehydrogenase was added at 20 units/mL. The reaction was initiated by mixing hGYS2 buffer and substrate buffer at a 1:1 ratio. Both buffers were plated using a liquid dispensing device with hGYS2 buffer plated first followed by the substrate buffer. Plates were spun briefly to eliminate air bubbles and are immediately read in continuous mode at an absorbance of 340 nm, for 10 time points in one-minute increments, for a total of 10 minutes. The slope from these 10 time points was normalized to the positive and negative control wells. The duplicate % inhibition values are then averaged and fit to a Hill equation for dose response according to the Levenberg-Marquardt algorithm with the Hill equation maximum set to 100 and the minimum set to 0.
The results are shown in Table 4 below, which reports the IC50 of each compound. Unless otherwise specified, IC50 values are reported as the geometric mean of at least 2 assay runs on separate days. As shown in the table below, the compounds of the present invention are not potent inhibitors of human GYS2. Unless otherwise specified, IC50 values are reported as the geometric mean of at least two assay runs on separate days. Each run represents the average of a technical replicate, where each compound was assayed twice in the same plate. A superscript “#” symbol in Table 4 indicates results from a single assay run.

Chain of hGYS1 enzyme (recombinant hGYS1/GN1 protein) (P13807 whole entry): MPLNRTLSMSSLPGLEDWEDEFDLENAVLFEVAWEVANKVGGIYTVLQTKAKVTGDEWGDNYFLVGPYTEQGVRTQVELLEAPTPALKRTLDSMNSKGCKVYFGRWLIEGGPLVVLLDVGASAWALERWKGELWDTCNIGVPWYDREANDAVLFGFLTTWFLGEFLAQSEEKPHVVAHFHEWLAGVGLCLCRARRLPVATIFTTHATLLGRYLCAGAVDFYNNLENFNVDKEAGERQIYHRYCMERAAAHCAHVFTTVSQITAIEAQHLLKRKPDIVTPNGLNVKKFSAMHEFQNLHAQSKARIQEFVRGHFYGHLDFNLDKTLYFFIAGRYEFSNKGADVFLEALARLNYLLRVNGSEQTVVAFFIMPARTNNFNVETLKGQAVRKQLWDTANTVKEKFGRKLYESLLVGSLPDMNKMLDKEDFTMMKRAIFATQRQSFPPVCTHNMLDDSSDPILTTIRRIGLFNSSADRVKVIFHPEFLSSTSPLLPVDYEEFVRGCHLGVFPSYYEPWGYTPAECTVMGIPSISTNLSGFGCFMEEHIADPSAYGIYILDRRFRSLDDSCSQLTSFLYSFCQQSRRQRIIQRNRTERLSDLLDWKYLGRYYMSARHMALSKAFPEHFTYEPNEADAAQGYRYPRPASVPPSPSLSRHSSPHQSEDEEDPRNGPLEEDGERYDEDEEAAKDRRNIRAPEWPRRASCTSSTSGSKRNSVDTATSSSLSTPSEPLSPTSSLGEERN
Chain of hGYS1 enzyme (recombinant hGYS1/GN1 protein) (P46976 whole entry partner): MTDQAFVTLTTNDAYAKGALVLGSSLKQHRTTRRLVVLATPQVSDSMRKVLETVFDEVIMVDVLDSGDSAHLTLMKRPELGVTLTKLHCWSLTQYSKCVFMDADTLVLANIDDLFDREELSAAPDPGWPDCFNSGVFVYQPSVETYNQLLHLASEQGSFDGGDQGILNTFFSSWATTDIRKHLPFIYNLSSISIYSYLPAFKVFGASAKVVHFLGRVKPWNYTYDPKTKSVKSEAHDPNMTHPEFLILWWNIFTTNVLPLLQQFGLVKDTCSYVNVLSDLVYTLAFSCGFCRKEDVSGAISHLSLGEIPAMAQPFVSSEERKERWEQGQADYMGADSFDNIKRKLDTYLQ
Chain of hGYS2 enzyme (recombinant hGYS2/GN1 protein) (P54840 whole entry): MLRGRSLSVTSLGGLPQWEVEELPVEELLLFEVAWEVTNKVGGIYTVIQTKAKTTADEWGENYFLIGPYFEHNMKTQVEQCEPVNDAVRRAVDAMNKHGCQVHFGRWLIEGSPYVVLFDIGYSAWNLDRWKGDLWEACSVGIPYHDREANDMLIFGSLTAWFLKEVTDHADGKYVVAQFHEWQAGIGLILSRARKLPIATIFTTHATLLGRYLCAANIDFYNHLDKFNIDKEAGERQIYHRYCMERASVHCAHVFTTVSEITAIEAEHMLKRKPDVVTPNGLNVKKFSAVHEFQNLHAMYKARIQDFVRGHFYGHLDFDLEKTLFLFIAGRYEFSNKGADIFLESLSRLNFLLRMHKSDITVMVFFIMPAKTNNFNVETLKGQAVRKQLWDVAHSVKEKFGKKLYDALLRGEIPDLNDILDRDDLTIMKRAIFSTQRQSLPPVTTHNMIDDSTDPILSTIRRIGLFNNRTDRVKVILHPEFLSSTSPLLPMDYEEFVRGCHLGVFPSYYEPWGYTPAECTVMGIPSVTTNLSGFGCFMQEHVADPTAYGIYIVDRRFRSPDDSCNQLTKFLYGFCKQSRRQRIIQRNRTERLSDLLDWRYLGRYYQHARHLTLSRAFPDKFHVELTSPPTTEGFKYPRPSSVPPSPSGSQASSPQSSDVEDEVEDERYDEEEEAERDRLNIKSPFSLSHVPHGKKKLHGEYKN
Chain of hGYS2 enzyme (recombinant hGYS2/GN1 protein) (P46976 whole entry partner): as the sequence (P46976 whole entry partner) above

Compound | IC50 [1] | IC50 [2]
CC(C)c1ccc([C@@H](NC(=O)[C@@H]2C[C@@H](F)CN2C(=O)C(C)n2cnnn2)c2ccccc2)cc1 (stereo partly drawn) [Compound 24, (2S,4R)-4-fluoro-N-[(S)-phenyl[4-(propan-2-yl)phenyl]methyl]-1-[2-(1H-1,2,3,4-tetrazol-1-yl)propanoyl]pyrrolidine-2-carboxamide] | 50 nM | > 100000 nM
CC(C)c1ccc([C@@H](NC(=O)[C@@H]2C[C@@H](F)CN2C(=O)C2(C)COC2)c2ccccc2)cc1 [Compound 25, (2S,4R)-4-fluoro-1-(3-methyloxetane-3-carbonyl)-N-[(S)-phenyl[4-(propan-2-yl)phenyl]methyl]pyrrolidine-2-carboxamide] | 235 nM | > 100000 nM
CC(C)c1ccc([C@@H](NC(=O)[C@@H]2C[C@@H](F)CN2C(=O)Cc2cnccn2)c2ccccc2)cc1 [Compound 26, (2S,4R)-4-fluoro-N-[(S)-phenyl[4-(propan-2-yl)phenyl]methyl]-1-[2-(pyrazin-2-yl)acetyl]pyrrolidine-2-carboxamide] | 36 nM | > 100000 nM
CC(C)c1ccc([C@@H](NC(=O)[C@@H]2C[C@@H](F)CN2C(=O)Cc2cncnc2)c2ccccc2)cc1 [Compound 27, (2S,4R)-4-fluoro-N-[(S)-phenyl[4-(propan-2-yl)phenyl]methyl]-1-[2-(pyrimidin-5-yl)acetyl]pyrrolidine-2-carboxamide] | 23 nM | > 100000 nM
Cc1nc(CC(=O)N2C[C@H](F)C[C@H]2C(=O)N[C@@H](c2ccccc2)c2ccc(C(C)C)cc2)no1 [Compound 29, (2S,4R)-4-fluoro-1-[2-(5-methyl-1,2,4-oxadiazol-3-yl)acetyl]-N-[(S)-phenyl[4-(propan-2-yl)phenyl]methyl]pyrrolidine-2-carboxamide] | 70 nM | > 100000 nM
Cc1noc(CC(=O)N2C[C@H](F)C[C@H]2C(=O)N[C@@H](c2ccccc2)c2ccc(C(C)C)cc2)n1 [Compound 31, (2S,4R)-4-fluoro-1-[2-(3-methyl-1,2,4-oxadiazol-5-yl)acetyl]-N-[(S)-phenyl[4-(propan-2-yl)phenyl]methyl]pyrrolidine-2-carboxamide] | 48 nM | > 100000 nM
CC(C)c1ccc([C@@H](NC(=O)[C@@H]2C[C@@H](F)CN2C(=O)Cn2ccncc2=O)c2ccccc2)cc1 [Compound 32, (2S,4R)-4-fluoro-1-[2-(2-oxo-1,2-dihydropyrazin-1-yl)acetyl]-N-[(S)-phenyl[4-(propan-2-yl)phenyl]methyl]pyrrolidine-2-carboxamide] | 23 nM | > 100000 nM
CC(C)c1ccc([C@@H](NC(=O)[C@@H]2C[C@@H](F)CN2C(=O)C(C)n2ccnn2)c2ccccc2)cc1 (stereo partly drawn) [Compound 33, (2S,4R)-4-fluoro-N-[(S)-phenyl[4-(propan-2-yl)phenyl]methyl]-1-[2-(1H-1,2,3-triazol-1-yl)propanoyl]pyrrolidine-2-carboxamide] | 106 nM | > 100000 nM
CC(C)c1ccc([C@@H](NC(=O)[C@@H]2C[C@@H](F)CN2C(=O)C(C)n2cncn2)c2ccccc2)cc1 (stereo partly drawn) [Compound 34, (2S,4R)-4-fluoro-N-[(S)-phenyl[4-(propan-2-yl)phenyl]methyl]-1-[2-(1H-1,2,4-triazol-1-yl)propanoyl]pyrrolidine-2-carboxamide] | 75 nM | > 100000 nM
CC(C)c1ccc([C@@H](NC(=O)[C@@H]2C[C@@H](F)CN2C(=O)CCn2cncn2)c2ccccc2)cc1 [Compound 35, (2S,4R)-4-fluoro-N-[(S)-phenyl[4-(propan-2-yl)phenyl]methyl]-1-[3-(1H-1,2,4-triazol-1-yl)propanoyl]pyrrolidine-2-carboxamide] | 185 nM | > 100000 nM
CC(C)c1ccc([C@@H](NC(=O)[C@@H]2C[C@@H](F)CN2C(=O)Cc2ccc(F)cn2)c2ccccc2)cc1 [Compound 36, (2S,4R)-4-fluoro-1-[2-(5-fluoropyridin-2-yl)acetyl]-N-[(S)-phenyl[4-(propan-2-yl)phenyl]methyl]pyrrolidine-2-carboxamide] | 73 nM | > 100000 nM
CC(C)c1ccc([C@@H](NC(=O)[C@@H]2C[C@@H](F)CN2C(=O)Cc2ccccn2)c2ccccc2)cc1 [Compound 37, (2S,4R)-4-fluoro-N-[(S)-phenyl[4-(propan-2-yl)phenyl]methyl]-1-[2-(pyridin-2-yl)acetyl]pyrrolidine-2-carboxamide] | 45 nM | > 100000 nM
CC(C)c1ccc([C@@H](NC(=O)[C@@H]2C[C@@H](F)CN2C(=O)Cc2cccnc2)c2ccccc2)cc1 [Compound 38, (2S,4R)-4-fluoro-N-[(S)-phenyl[4-(propan-2-yl)phenyl]methyl]-1-[2-(pyridin-3-yl)acetyl]pyrrolidine-2-carboxamide] | 51 nM | > 100000 nM

Continued, values first:

IC50 [1] | IC50 [2] | Compound
26 nM | > 100000 nM | Cc1cc(CC(=O)N2C[C@H](F)C[C@H]2C(=O)N[C@@H](c2ccccc2)c2ccc(C(C)C)cc2)on1 [Compound 40, (2S,4R)-4-fluoro-1-[2-(3-methyl-1,2-oxazol-5-yl)acetyl]-N-[(S)-phenyl[4-(propan-2-yl)phenyl]methyl]pyrrolidine-2-carboxamide]
31 nM | > 100000 nM | Cc1ncc(CC(=O)N2C[C@H](F)C[C@H]2C(=O)N[C@@H](c2ccccc2)c2ccc(C(C)C)cc2)s1 [Compound 41, (2S,4R)-4-fluoro-1-[2-(2-methyl-1,3-thiazol-5-yl)acetyl]-N-[(S)-phenyl[4-(propan-2-yl)phenyl]methyl]pyrrolidine-2-carboxamide]
106 nM | > 100000 nM | CC(C)c1ccc([C@@H](NC(=O)[C@@H]2C[C@@H](F)CN2C(=O)C(C)n2ccnc2)c2ccccc2)cc1 (stereo partly drawn) [Compound 44, (2S,4R)-4-fluoro-1-[2-(1H-imidazol-1-yl)propanoyl]-N-[(S)-phenyl[4-(propan-2-yl)phenyl]methyl]pyrrolidine-2-carboxamide]
136 nM | > 100000 nM | CC(C)c1ccc([C@@H](NC(=O)[C@@H]2C[C@@H](F)CN2C(=O)CCc2cn[nH]c2)c2ccccc2)cc1 [Compound 46, (2S,4R)-4-fluoro-N-[(S)-phenyl[4-(propan-2-yl)phenyl]methyl]-1-[3-(1H-pyrazol-4-yl)propanoyl]pyrrolidine-2-carboxamide]
44 nM | > 100000 nM | CC(C)c1ccc([C@@H](NC(=O)[C@@H]2C[C@@H](F)CN2C(=O)COc2cccnc2)c2ccccc2)cc1 [Compound 48, (2S,4R)-4-fluoro-N-[(S)-phenyl[4-(propan-2-yl)phenyl]methyl]-1-[2-(pyridin-3-yloxy)acetyl]pyrrolidine-2-carboxamide]
17 nM | > 100000 nM | CC(C)c1ccc([C@@H](NC(=O)[C@@H]2C[C@@H](F)CN2C(=O)Cc2cnn(C)c2)c2ccccc2)cc1 [Compound 50, (2S,4R)-4-fluoro-1-[2-(1-methyl-1H-pyrazol-4-yl)acetyl]-N-[(S)-phenyl[4-(propan-2-yl)phenyl]methyl]pyrrolidine-2-carboxamide]
19 nM | > 100000 nM | CC(C)c1ccc([C@@H](NC(=O)[C@@H]2C[C@@H](F)CN2C(=O)Cn2ccccc2=O)c2ccccc2)cc1 [Compound 51, (2S,4R)-4-fluoro-1-[2-(2-oxo-1,2-dihydropyridin-1-yl)acetyl]-N-[(S)-phenyl[4-(propan-2-yl)phenyl]methyl]pyrrolidine-2-carboxamide]
